Test results taken from patent US20130065227A1, “METHODS OF INCREASING MACROPINOCYTOSIS IN CANCER CELLS” (priority 2010, published 2013).

Columns and labels:
Hs27 [1] = assay: Uptake of AS1411 by macropinocytosis (MP); assay type: cell-based, human; conditions: Non-cancer, skin fibroblasts
Experimental: FIG. 2 are graphs showing that AS1411 is internalized by different endocytic mechanisms in DU145 cancer cells and in non-malignant Hs27 cells. DU145 or Hs27 cells were plated 18 h before uptake analysis. Cells were pre-treated as described with inhibitor (gray histogram) or the corresponding vehicle control (black histogram) before addition of 10 μM FL-AS1411 and incubation at 37° C. for 2 h. After incubation, cells were harvested and analyzed by flow cytometry. Pre-treatment conditions were at 37° C. with: (Panel A) 5 μM Cytochalasin D for 30 min; (Panel B) 80 μM Dynasore for 30 min; or (Panel C) 3 mM amiloride for 1 h. All experiments were repeated at least three times and representative data are shown. Solid gray histograms represent background autofluorescence of unstained cells.
To analyze uptake of the oligodeoxynucleotides or dextran-10K (macropinocytic marker) by flow cytometry, 2×10^5 cells in fresh supplemented culture medium (2.5 ml) were plated into 6-well plates for 18 h. After complete adhesion, the cells were incubated with 5′-FAM tagged oligodeoxynucleotides or Alexa Fluor 488 tagged dextran-10K and incubated as indicated in the Description of the Drawings. Cells were washed once with ice-cold PBS, incubated with 1 μg/ml 7-amino-actinomycin D (7-AAD) for 5 min on ice or 1 μg/ml propidium iodide (PI), and washed twice with ice-cold PBS. […]

MCF10A = assay: Uptake of AS1411 by macropinocytosis (MP); assay type: cell-based, human; conditions: Non-cancer, breast epithelial
Text: (§1) It has recently been discovered that AS1411 can stimulate macropinocytosis (MP) in cancer cells and this finding was verified by several different methods and in multiple cancer cell lines (Table 1).

A549 = assay: Uptake of AS1411 by macropinocytosis (MP); assay type: cell-based; conditions: Cancer, non-small cell lung
Text: as §1

BEAS2B = assay: Uptake of AS1411 by macropinocytosis (MP); assay type: cell-based; conditions: Non-cancer, lung epithelial
Text: as §1

CHO = assay: Uptake of AS1411 by macropinocytosis (MP); assay type: cell-based; conditions: Non-cancer, hamster ovary
Text: as §1

RCC4 = assay: Uptake of AS1411 by macropinocytosis (MP); assay type: cell-based; conditions: Cancer, renal cell
Text: as §1

RWPE1 = assay: Uptake of AS1411 by macropinocytosis (MP); assay type: cell-based; conditions: Non-cancer, prostate epithelial
Text: as §1

MCF7 [2] = assay: Uptake of AS1411 by macropinocytosis (MP); assay type: cell-based; conditions: MCF7; Cancer, breast
Text: (§2) There was little effect of amiloride treatment on uptake of FL-CRO in either DU145 cancer cells or non-malignant Hs27 cells (FIG. 9B). […] These studies also confirmed the previous results that there was higher overall uptake of FL-AS1411 in Hs27 cells than in DU145 cells.
as §1

MDA-MB-231 [3] = assay: Uptake of AS1411 by macropinocytosis (MP); assay type: cell-based; conditions: MDA-MB-231; Cancer, breast
Text: as §2, §1

Hs27 [4] = assay: Stimulation of macropinocytosis (dextran uptake); assay type: cell-based, human; conditions: Hs27; Non-cancer, skin fibroblasts
Experimental: (Panel A) DU145 cells were treated with 10 μM tAS1411 or 10 μM tCRO or no oligonucleotide in complete DMEM medium at 37° C. for the time indicated. After treatment, cell medium was changed for fresh complete medium containing 0.2 mg/ml dextran-10K labeled with Alexa Fluor 488, and cells were incubated for 30 min at 37° C. After incubation, cells were harvested and analyzed by flow cytometry to determine dextran uptake. (Panel B) The same experiment was performed using Hs27 cells. (Panel C) DU145 cells were treated with 10 μM tAS1411 or 10 μM tCRO or no oligonucleotide in complete DMEM medium at 37° C. for 48 h. […]
AS1411 causes a change in cancer cell morphology that is characterized by vacuolization, irregular nuclei, and swollen cells (Xu et al., 2001, J. Biol. Chem., 276:43221-30). […] To test this idea, DU145 cells were pre-treated for 24 h with tAS1411, then added FL-AS1411 and evaluated uptake after an additional 2 h using flow cytometry. […] This idea is not necessarily inconsistent with the time course data shown in FIG. 1A because the fluorescence signal may decrease over time for a number of reasons, including exocytosis of the ligand and fluorescence quenching due to protein binding or environmental factors (the fluorophore used for flow cytometry is particularly sensitive to acidic environments). […]

MCF7 [5] = assay: Stimulation of macropinocytosis (dextran uptake); assay type: cell-based; conditions: MCF7; Cancer, breast
Experimental: (§3) FIG. 10 are graphs showing the stimulation of macropinocytosis by GROs. Breast carcinoma cells (MDA-MB-231, MCF-7) or non-malignant breast epithelial cells (MCF10A) cells were plated 18 hr before treatment with 10 μM tAS1411 or 10 μM tCRO or water in complete DMEM medium at 37° C. for 48 hr or 72 hr. After treatment, cell medium was changed for fresh complete medium containing 0.2 mg/ml dextran-10K labeled with Alexa Fluor 488 and cells were incubated for 30 min at 37° C. Cells were then incubated on ice with 1 mg/ml PI in PBS, harvested, and analyzed by flow cytometry. Uptake was normalized to no pre-treatment controls and bars show the mean and SE of three independent experiments.
(§4) To analyze uptake of the oligodeoxynucleotides or dextran-10K (macropinocytic marker) by flow cytometry, 2×10^5 cells in fresh supplemented culture medium (2.5 ml) were plated into 6-well plates for 18 h. After complete adhesion, the cells were incubated with 5′-FAM tagged oligodeoxynucleotides or Alexa Fluor 488 tagged dextran-10K and incubated as indicated in the Description of the Drawings. Cells were washed once with ice-cold PBS, incubated with 1 μg/ml 7-amino-actinomycin D (7-AAD) for 5 min on ice or 1 μg/ml propidium iodide (PI), and washed twice with ice-cold PBS. Cells were then treated with 0.01% trypsin/0.5 mM EDTA (300 μl) for 3 min prior addition 3 ml supplemented culture medium. The cells were then centrifuged and resuspended in 0.5 ml of 1% paraformaldehyde for analysis by flow cytometry using a FACScalibur cytometer (BD Biosciences, Mountain View, Calif.).
(§5) AS1411 causes a change in cancer cell morphology that is characterized by vacuolization, irregular nuclei, and swollen cells (Xu et al., 2001, J. Biol. Chem., 276:43221-30). Therefore, the effect of AS1411 on macropinocytosis in DU145 cells and non-malignant Hs27 cells was investigated. […] As in all of the flow cytometry experiments, cells were gated to exclude permeable cells, discounting the possibility that this increase was due to cell death. […] One implication of the finding that AS1411 causes hyperstimulation of macropinocytosis is that treatment of AS1411 might actually promote its own internalization by cancer cells. To test this idea, DU145 cells were pre-treated for 24 h with tAS1411, then added FL-AS1411 and evaluated uptake after an additional 2 h using flow cytometry. […] This idea is not necessarily inconsistent with the time course data shown in FIG. 1A because the fluorescence signal may decrease over time for a number of reasons, including exocytosis of the ligand and fluorescence quenching due to protein binding or environmental factors (the fluorophore used for flow cytometry is particularly sensitive to acidic environments). […]

MDA-MB-231 [6] = assay: Stimulation of macropinocytosis (dextran uptake); assay type: cell-based; conditions: MDA-MB-231; Cancer, breast
Experimental: as §3, §4, §5

[7] = test system: DU145 CD24^lo/CD44^hi cells; assay: Spheroid culture; assay type: cell-based; conditions: 10 μM AS1411, drug replenished weekly
Experimental: DU145 CD24^lo/CD44^hi cells were sorted by FACS, plated for sphere culture, and treated with or without 10 μM AS1411. Media was changed and drug replenished weekly. Plates were monitored for dissolution of spheres. Once dissolution was observed, serial photographs were taken of each well and the total number of spheres counted.

5′-d(GGTGGTGGTGGTTGTGGTGGTGGTGG) [AS1411]
Update by MP? (Hs27 [1]): No | Update by MP? (MCF10A): Low | Update by MP? (A549): Yes | Update by MP? (BEAS2B): Low | Update by MP? (CHO): No | Update by MP? (RCC4): Yes | Update by MP? (RWPE1): No | Update by MP? (MCF7 [2]): Yes | Update by MP? (MDA-MB-231 [3]): Yes | Stimulate MP? (Hs27 [4]): No | Stimulate MP? (MCF7 [5]): Yes | Stimulate MP? (MDA-MB-231 [6]): Yes | effect on spheroids [7]: can cause disintegration of spheroids
